Paper PMC5963102 (International Journal for Parasitology: Drugs and Drug …, 2017)
Read-outs that look alike come from different tables or passages of the source.

Key:
[1] = molecular target: Asu-ACR-16 (nicotine sensitive nAChR) (Ascaris suum, UniProt F1KYJ9); assay: Two-electrode voltage-clamp on Asu-ACR-16 nAChR expressed in Xenopus laevis oocytes; format: cell-based
Experimental: (§1) All nAChR subunit and ancillary factor cRNAs from A. suum (Asu-acr-16 and Asu-ric-3), O. dentatum (Ode-unc-29, Ode-unc-38, […] and Ode-acr-8) and H. contortus (Hco-ric-3, Hco-unc-50 and Hco-unc-74) were prepared as previously described ([Abongwa et al., 2016a], [Buxton et al., 2014]). Briefly, defolliculated X. laevis oocytes were obtained from Ecocyte Bioscience (Austin, TX, USA). A Nanoject II microinjector (Drummond Scientific, Broomall, PA, USA) was used to inject cRNA into the cytoplasm at the animal pole region of the oocytes. Homomeric nAChRs comprising Asu-ACR-16 subunits were expressed by co-injecting 25 ng of Asu-acr-16 with 5 ng of Asu-ric-3 in a total volume of 50 nl in nuclease-free water. Heteromeric nAChRs from O. dentatum were expressed by co-injecting 1.8 ng of each subunit cRNA that make up the levamisole (Ode-unc-29, Ode-unc-38, […] and Ode-acr-8) or pyrantel/tribendimidine (Ode-unc-29, Ode-unc-38 and Ode-unc-63) receptor with 1.8 ng of each H. contortus ancillary factor (Hco-ric-3, Hco-unc-50 and Hco-unc-74) in a total volume of 36 nl in nuclease-free water. Injected oocytes were transferred to 96-well microtiter plates containing 200 μl incubation solution (100 mM NaCl, 2 mM KCl, 1.8 mM CaCl2·2H20, 1 mM MgCl2·6H20, 5 mM HEPES, 2.5 mM Na pyruvate, 100 U·ml^−1penicillin and 100 μg ml^−1 streptomycin, pH 7.5) and incubated at 19 °C for 5–7 days to allow for functional receptor expression. Incubation solution was changed daily.
(§2) Currents produced by activation of expressed Asu-ACR-16 and Ode levamisole sensitive and Ode pyrantel/tribendimidine sensitive receptors were recorded using the two-electrode voltage-clamp electrophysiology technique as previously described ([Abongwa et al., 2016a], [Buxton et al., 2014]). 100 μM BAPTA-AM was added to the oocyte incubation solution about 4 h prior to recording to prevent activation of endogenous calcium-activated chloride currents during recording. Recordings were made using an Axoclamp 2B amplifier (Molecular Devices, Sunnyvale, CA, USA) and data acquired on a computer with Clampex 10.3 (Molecular Devices, Sunnyvale, CA, USA). For all experiments, oocytes were voltage-clamped at −60 mV. Microelectrodes for impaling oocytes were pulled using a Flaming/Brown horizontal electrode puller (Model P-97; Sutter Instruments, Novato, CA, USA). The microelectrodes were filled with 3 M KCl and their tips carefully broken with a piece of tissue paper to attain a resistance of 2–5 MΩ in recording solution (100 mM NaCl, 2.5 mM KCl, 1 mM CaCl2·2H2O and 5 mM HEPES, pH 7.3).
(§3) Electrophysiology data was measured with Clampfit 10.3 (Molecular devices, Sunnyvale CA, USA) and analyzed with GraphPad Prism 5.0 (GraphPad Software Inc., La Jolla, CA, USA). […] Concentration-response relationships (for each oocyte) were analyzed by fitting log concentration-response data points with the Hill equation as previously described ([Boulin et al., 2008]). % inhibition for monepantel was calculated using 100-Rmax for each experiment and plotted as mean ± s.e.m. on the concentration-inhibition plots. IC50's were calculated as previously described ([Zheng et al., 2016]). We used one-way ANOVA to test for statistical differences among treatment groups. If the group means were statistically different (p < .05), we used the Tukey multiple comparison test to determine significant differences between groups.

[2] = molecular target: Ode pyrantel/tribendimidine nAChR (Ode-UNC-29:Ode-UNC-38:Ode-UNC-63) (Oesophagostomum dentatum, UniProt E5KIX9+V5J2B2+V5J336); assay: Two-electrode voltage-clamp on Ode pyrantel/tribendimidine receptors expressed in Xenopus laevis oocytes; format: cell-based
Experimental: as §1, §2, §3

[3] = molecular target: Ode levamisole nAChR (Ode-UNC-29:Ode-UNC-38:Ode-UNC-63:Ode-ACR-8) (Oesophagostomum dentatum, UniProt E5KIX9+L7MMZ7+V5J2B2+V5J336); assay: Two-electrode voltage-clamp on Ode levamisole receptors expressed in Xenopus laevis oocytes; format: cell-based
Experimental: as §1
as §2, with “Microelectrodes for impaling oocytes were pulled using a Flaming/Brown horizontal electrode puller (Model P-97; Sutter Instruments, Novato, CA, USA). The microelectrodes were filled with 3 M KCl and their tips carefully broken with a piece of tissue paper to attain a resistance of 2–5 MΩ in recording solution (100 mM NaCl, 2.5 mM KCl, 1 mM CaCl2·2H2O and 5 mM HEPES, pH 7.3).” left out
as §3, with “We used one-way ANOVA to test for statistical differences among treatment groups. If the group means were statistically different (p < .05), we used the Tukey multiple comparison test to determine significant differences between groups.” left out

A. suum muscle flaps = assay: Muscle contraction assay, isometric contractions of Ascaris body muscle flaps; format: cell-based, Ascaris suum; conditions: for EC50: Ascaris suum
Experimental: Adult A. suum were collected from the IMES slaughterhouse, Belgrade, Serbia and maintained in Locke's solution (155 mM NaCl, 5 mM KCl, 2 mM CaCl2, 1.5 mM NaHCO3 and 5 mM glucose) at 32 °C for 5 days. Locke's solution was changed daily. Ascaris muscle flaps for contraction studies were prepared as described in [Trailović et al. (2015)]. Briefly, 1 cm muscle body flaps were prepared by dissecting the anterior 2–3 cm part of the worm. A force transducer in an experimental bath containing 20 ml APF (23 mM NaCl, 110 mM Na acetate, 24 mM KCl, 6 mM CaCl2, 5 mM MgCl2, 11 mM glucose, 5 mM HEPES, pH 7.6) and 0.1% DMSO and bubbled with nitrogen was attached to each muscle flap. The bath was maintained at 37 °C during which isometric contractions of each flap were monitored on a PC computer using a BioSmart interface and eLAB software (EIUnit, Belgrade). The system allows real time recording, display and analysis of experimental data.
Isometric contractions of each Ascaris muscle flap in the absence and presence of monepantel were monitored on a PC computer using eLAB software (EIUnit, Belgrade). GraphPad Prism 5.0 (GraphPad Software Inc., La Jolla, CA, USA) was used to analyze the data. […] Single concentration-response relationships were fitted to the data as described in Section 2.5.1.

A. suum = tested on: A. suum; design: method as in Tritten et al., 2011; conditions: 600 mg/kg; ref Tritten et al., 2011; cited from earlier work
[4] = tested on: H. contortus MPTL-1 receptors; design: method as in Baur et al., 2015; conditions: ref Baur et al., 2015, cited from earlier work
[5] = tested on: C. elegans ACR-20 receptors; design: method as in Baur et al., 2015; conditions: ref Baur et al., 2015, cited from earlier work
[6] = read-out: acetylcholine Rmax (mean ± s.e.m.)

Asu-ACR-16 (nicotine sensitive nAChR), sequence (F1KYJ9 entry or part of it): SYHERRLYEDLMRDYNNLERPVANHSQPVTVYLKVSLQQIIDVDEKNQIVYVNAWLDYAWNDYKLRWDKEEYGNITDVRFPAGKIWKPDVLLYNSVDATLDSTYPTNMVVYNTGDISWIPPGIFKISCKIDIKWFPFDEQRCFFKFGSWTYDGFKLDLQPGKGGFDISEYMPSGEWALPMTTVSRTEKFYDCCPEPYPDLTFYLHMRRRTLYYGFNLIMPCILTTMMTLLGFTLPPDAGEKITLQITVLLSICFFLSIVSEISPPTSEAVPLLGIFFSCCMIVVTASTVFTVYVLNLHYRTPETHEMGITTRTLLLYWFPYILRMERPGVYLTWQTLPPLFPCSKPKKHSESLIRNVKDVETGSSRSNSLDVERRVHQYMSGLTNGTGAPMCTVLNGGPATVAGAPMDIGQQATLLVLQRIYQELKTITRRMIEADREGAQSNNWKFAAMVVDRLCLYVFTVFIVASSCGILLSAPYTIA
Ode levamisole nAChR (Ode-UNC-29:Ode-UNC-38:Ode-UNC-63:Ode-ACR-8), sequence (L7MMZ7 entry or part of it): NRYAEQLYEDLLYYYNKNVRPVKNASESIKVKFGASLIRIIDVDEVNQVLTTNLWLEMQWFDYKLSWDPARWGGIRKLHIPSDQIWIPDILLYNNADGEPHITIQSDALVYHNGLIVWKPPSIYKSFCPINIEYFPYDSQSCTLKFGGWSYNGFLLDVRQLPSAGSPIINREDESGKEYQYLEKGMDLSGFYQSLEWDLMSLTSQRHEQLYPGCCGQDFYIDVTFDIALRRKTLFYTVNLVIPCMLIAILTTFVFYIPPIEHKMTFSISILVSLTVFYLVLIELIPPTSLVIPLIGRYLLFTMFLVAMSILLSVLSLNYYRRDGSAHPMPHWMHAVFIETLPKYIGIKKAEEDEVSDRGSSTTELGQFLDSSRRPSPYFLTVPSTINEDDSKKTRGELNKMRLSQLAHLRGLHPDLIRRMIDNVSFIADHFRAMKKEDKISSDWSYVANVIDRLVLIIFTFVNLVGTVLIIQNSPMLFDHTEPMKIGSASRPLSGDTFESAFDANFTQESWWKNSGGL
Ode levamisole nAChR (Ode-UNC-29:Ode-UNC-38:Ode-UNC-63:Ode-ACR-8), sequence (V5J2B2 entry or part of it): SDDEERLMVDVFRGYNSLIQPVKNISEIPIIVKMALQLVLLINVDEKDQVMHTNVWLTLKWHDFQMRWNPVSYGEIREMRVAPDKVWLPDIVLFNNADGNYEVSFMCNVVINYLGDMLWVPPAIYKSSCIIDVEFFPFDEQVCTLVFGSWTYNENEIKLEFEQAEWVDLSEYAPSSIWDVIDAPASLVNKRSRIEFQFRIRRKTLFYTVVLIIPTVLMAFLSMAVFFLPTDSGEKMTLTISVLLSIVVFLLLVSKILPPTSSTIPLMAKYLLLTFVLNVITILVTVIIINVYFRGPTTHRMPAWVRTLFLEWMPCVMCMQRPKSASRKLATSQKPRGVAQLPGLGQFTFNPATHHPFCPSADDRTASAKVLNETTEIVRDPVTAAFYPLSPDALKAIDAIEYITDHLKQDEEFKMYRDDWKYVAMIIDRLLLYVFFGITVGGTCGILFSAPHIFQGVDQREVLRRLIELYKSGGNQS
Ode levamisole nAChR (Ode-UNC-29:Ode-UNC-38:Ode-UNC-63:Ode-ACR-8), sequence (E5KIX9 entry or part of it): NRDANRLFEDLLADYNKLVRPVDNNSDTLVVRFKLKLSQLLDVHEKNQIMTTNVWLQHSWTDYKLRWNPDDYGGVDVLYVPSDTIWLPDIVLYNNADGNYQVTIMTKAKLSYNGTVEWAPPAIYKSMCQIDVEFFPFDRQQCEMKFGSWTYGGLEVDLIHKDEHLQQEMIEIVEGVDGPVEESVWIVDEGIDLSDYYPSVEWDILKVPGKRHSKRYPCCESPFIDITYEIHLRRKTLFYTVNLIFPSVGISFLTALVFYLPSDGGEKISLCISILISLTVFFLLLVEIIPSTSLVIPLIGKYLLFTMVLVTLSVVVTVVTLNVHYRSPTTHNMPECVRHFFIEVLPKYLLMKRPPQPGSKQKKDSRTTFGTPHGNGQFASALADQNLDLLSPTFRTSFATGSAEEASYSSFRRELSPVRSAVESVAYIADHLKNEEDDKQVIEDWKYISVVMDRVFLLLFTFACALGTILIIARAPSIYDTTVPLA
Ode levamisole nAChR (Ode-UNC-29:Ode-UNC-38:Ode-UNC-63:Ode-ACR-8), sequence (V5J336 entry or part of it): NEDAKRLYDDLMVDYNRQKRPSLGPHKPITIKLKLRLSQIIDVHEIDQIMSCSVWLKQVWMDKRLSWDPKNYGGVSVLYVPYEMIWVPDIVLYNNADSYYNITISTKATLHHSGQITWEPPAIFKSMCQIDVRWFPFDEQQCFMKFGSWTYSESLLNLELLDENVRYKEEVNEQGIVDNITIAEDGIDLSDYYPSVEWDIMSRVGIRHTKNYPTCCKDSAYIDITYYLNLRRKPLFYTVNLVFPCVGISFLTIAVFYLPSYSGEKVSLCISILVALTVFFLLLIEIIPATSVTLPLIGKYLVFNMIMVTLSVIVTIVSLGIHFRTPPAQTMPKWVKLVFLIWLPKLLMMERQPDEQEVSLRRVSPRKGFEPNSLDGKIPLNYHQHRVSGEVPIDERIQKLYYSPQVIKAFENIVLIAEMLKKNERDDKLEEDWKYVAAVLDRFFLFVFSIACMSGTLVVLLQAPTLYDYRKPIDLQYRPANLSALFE
Ode pyrantel/tribendimidine nAChR (Ode-UNC-29:Ode-UNC-38:Ode-UNC-63), sequence (V5J336 entry or part of it): as above
Ode pyrantel/tribendimidine nAChR (Ode-UNC-29:Ode-UNC-38:Ode-UNC-63), sequence (V5J2B2 entry or part of it): as the sequence (V5J2B2 entry or part of it) above
Ode pyrantel/tribendimidine nAChR (Ode-UNC-29:Ode-UNC-38:Ode-UNC-63), sequence (E5KIX9 entry or part of it): as the sequence (E5KIX9 entry or part of it) above

Structure (SMILES): CC(=O)OCC[N+](C)(C)C [Acetylcholine]
- Emax [1, 6]: 97.5 ± 1.2%
- EC50 [2]: 11.3 ± 1.3 µM
- Emax [2, 6]: 118 ± 4.5%
- Emax [3, 6]: 108.8 ± 1%
- EC50 (A. suum muscle flaps; read-out: acetylcholine EC50 (contraction)): 5.3 µM
- EC50 (A. suum muscle flaps; read-out: acetylcholine log EC50 ± s.e.m. (contraction) (converted)): 5.01 µM
- acetylcholine Rmax (mean ± s.e.m.), contraction (A. suum muscle flaps; acetylcholine alone (control)): 1.7 ± 0.4 g

Structure (SMILES): C[C@](C#N)(COc1cc(C#N)ccc1C(F)(F)F)NC(=O)c1ccc(SC(F)(F)F)cc1 [monepantel, N-[(2S)-2-cyano-1-[5-cyano-2-(trifluoromethyl)phenoxy]propan-2-yl]-4-(trifluoromethylsulfanyl)benzamide]
- IC50 [1]: 0.2 µM
- type of antagonism of acetylcholine responses ([1]; co-applied with acetylcholine): non-competitive antagonism
- maximum inhibition ([1]; component with IC50 1.6 nM): 40%
- maximum inhibition ([1]; component with IC50 0.2 μM): ~100%
- agonist action (receptor activation) ([1]; monepantel applied on its own): did not cause activation
- IC50 [2]: 1.7 ± 0.7 µM
- type of antagonism of acetylcholine responses ([2]; co-applied with acetylcholine): non-competitive antagonism
- agonist action (receptor activation) ([2]; monepantel alone): did not activate
- IC50 [3]: 5 ± 0.5 µM
- type of antagonism of acetylcholine responses ([3]; co-applied with acetylcholine): non-competitive antagonist
- agonist action (receptor activation) ([3]; monepantel applied alone): failed to activate
- type of antagonism of acetylcholine induced contractions (A. suum muscle flaps; 1-30 μM monepantel): mixture of competitive and non-competitive antagonism
- acetylcholine Rmax (mean ± s.e.m.), contraction (A. suum muscle flaps; in the presence of 3 μM monepantel): 1.1 ± 0.3 g
- acetylcholine Rmax (mean ± s.e.m.), contraction (A. suum muscle flaps; in the presence of 10 μM monepantel): 1.1 ± 0.5 g
- acetylcholine Rmax (mean ± s.e.m.), contraction (A. suum muscle flaps; in the presence of 30 μM monepantel): 0.5 ± 0.4 g
- effect on baseline tension (A. suum muscle flaps; monepantel on its own): did not produce any significant change in baseline tension
- in vivo activity against A. suum (A. suum): lack in vivo activity
- concentration at which it acts as direct agonist ([4]; high concentrations): > 0.1 µM
- concentration at which it acts as positive allosteric modulator ([4]; low concentrations): < 1 nM
- concentration at which it acts as direct agonist ([5]; high concentrations): > 0.1 µM
- concentration at which it acts as positive allosteric modulator ([5]; low concentrations): < 1 nM
